Source: patent US7119090B2, “Pyrrole substituted 2-indolinone protein kinase inhibitors” (Sugen, Inc., priority 1998, dated 2006)

Assays:
[1] = system: HUV-EC-C cells (aFGF); experiment: HUV-EC-C assay, aFGF (ECGF)-stimulated 3H-thymidine incorporation (HUVEC-aFGF); format: cell-based; details: Homo sapiens; Table 1
Method: (§1) The following protocol may also be used to measure a compound's activity against PDGF-R, FGF-R, VEGF, aFGF or Flk-1/KDR, all of which are naturally expressed by HUV-EC cells.
(§2) 1. […] After cells have detached from the flask, add an equal volume of assay medium and transfer to a 50 ml sterile centrifuge tube (Fisher Scientific, catalogue no. 05-539-6).
(§3) 2. Wash the cells with about 35 ml assay medium in the 50 ml sterile centrifuge tube by adding the assay medium, centrifuge for 10 minutes at approximately 200x g, aspirate the supernatant, and resuspend with 35 ml D-PBS. Repeat the wash two more times with D-PBS, resuspend the cells in about 1 ml assay medium/is cm^2 of tissue culture flask. Assay medium consists of F12K medium (Gibco BRL, catalogue no. 21127-014) and 0.5% heat-inactivated fetal bovine serum. Count the cells with a Coulter Counter® (Coulter Electronics, Inc.) and add assay medium to the cells to obtain a concentration of 0.8-1.0×10^5 cells/ml.
(§4) 3. Add cells to 96-well flat-bottom plates at 100 μl/well or 0.8-1.0×10^4 cells/well, incubate −24h at 37° C., 5% CO2.
(§5) 1. Make up two-fold test compound titrations in separate 96-well plates, generally 50 μM on down to 0 μM. Use the same assay medium as mentioned in day 0, step 2 above. Titrations are made by adding […] of test compound at 200 μM (4X the final well concentration) to the top well of a particular plate column. Since the stock test compound is usually 20 mM in DMSO, the 200 μM drug concentration contains 2% DMSO.
(§6) A diluent made up to 2% DMSO in assay medium (F12K+0.5% fetal bovine serum) is used as diluent for the test compound titrations in order to dilute the test compound but keep the DMSO concentration constant. Add this diluent to the remaining wells in the column at 60 μl/well. Take 60 μl from the 120 μl of 200 μM test compound dilution in the top well of the column and mix with the 60 μl in the second well of the column. Take 60 μl from this well and mix with the 60 μl in the third well of the column, and so on until two-fold titrations are completed. When the next-to-the-last well is mixed, take 60 μl of the 120 μl in this well and discard it. Leave the last well with 60 μl of DMSO/media diluent as a non-test compound-containing control. Make 9 columns of titrated test compound, enough for triplicate wells each for: (1) VEGF (obtained from Pepro Tech Inc., catalogue no. 100-200, (2) endothelial cell growth factor (ECGF) (also known as acidic fibroblast growth factor, or aFGF) (obtained from Boehringer Mannheim Biochemica, catalogue no. 1439 600), or, (3) human PDGF B/B (1276-956, Boehringer Mannheim, Germany) and assay media control. ECGF comes as a preparation with sodium heparin.
(§7) 2. Transfer 50 μl/well of the test compound dilutions to the 96-well assay plates containing the 0.8-1.0×10^4 cells/100 μl/well of the HUV-EC-C cells from day 0 and incubate […] at 37° C., 5% CO2.
(§8) 3. In triplicate, add 50 μl well of […] VEGF, 20 ng/ml ECGF, or media control to each test compound condition. As with the test compounds, the growth factor concentrations are 4X the desired final concentration. Use the assay media from day 0 step 2 to make the concentrations of growth factors. Incubate approximately 24 hours at 37° C., 5% CO2. Each well will have 50 μl test compound dilution, 50 μl growth factor or media, and 100 μl cells, which calculates to 200 μl/well total. Thus the 4X concentrations of test compound and growth factors become 1X once everything has been added to the wells.
(§9) 1. Add ^3H-thymidine (Amersham, catalogue no. TRK-686) at 1 μCi/well (10 μl/well of 100 μCi/ml solution made up in RPMI media +10% heat-inactivated fetal bovine serum) and incubate ˜24 h at 37° C., 5% CO2. RPMI is obtained from Gibco BRL, catalogue no. 11875-051.
(§10) 1. Freeze plates overnight at −20° C. […]

[2] = system: HUV-EC-C cells (VEGF); experiment: HUV-EC-C assay, VEGF-stimulated 3H-thymidine incorporation (HUVEC-VEGF); format: cell-based; details: Homo sapiens; Table 1
Method: as §1, §2, §3, §4, §5, §6, §7, §8, §9, §10

Row | SMILES | IC50 [1] | IC50 [2]
1 | Cc1c(CCC(=O)O)c[nH]c1/C=C1\C(=O)Nc2ccc(Cl)cc21 [Example 1, 3-[5-(5-Chloro-2-oxo-1,2-dihydroindol-3-ylidenemethyl)-4-methyl-1H-pyrrol-3-yl]-propionic acid] | 21.4 µM | 0.38 µM
2 | COc1ccc2c(c1)NC(=O)/C2=C\c1[nH]cc(CCC(=O)O)c1C [Example 2, 3-[5-(6-Methoxy-2-oxo-1,2-dihydroindol-3-ylidenemethyl)-4-methyl-1H-pyrrol-3-yl]-propionic acid] | 31.6 µM | 1.6 µM
3 | Cc1[nH]c(/C=C2\C(=O)Nc3ccc(Cl)cc32)c(C)c1CCC(=O)O [Example 3, 3-[5-(5-Chloro-2-oxo-1,2-dihydroindol-3-ylidenemethyl)-2,4-dimethyl-1H-pyrrol-3-yl]-propionic acid] | 2.8 µM | 0.05 µM
4 | Cc1c(CCC(=O)O)c[nH]c1/C=C1\C(=O)Nc2ccccc21 [Example 4, 3-[4-Methyl-5-(2-oxo-l,2-dihydroindol-3-ylidenemethyl)-1H-pyrrol-3-yl]-propionic acid] | 7.1 µM | 0.11 µM
5 | Cc1c(CCC(=O)O)c[nH]c1/C=C1\C(=O)Nc2ccc(Br)cc21 [Example 6, 3-[5-(5-Bromo-2-oxo-1,2-dihydroindol-3-ylidenemethyl)-4-methyl-1H-pyrrol-3-yl]-propionic acid] | 18.4 µM | 0.63 µM
6 | Cc1c(CCC(=O)O)c[nH]c1/C=C1\C(=O)Nc2ccc(I)cc21 [Example 7, 3-[5-(5-Iodo-2-oxo-1,2-dihydroindol-3-ylidenemethyl)-4-methyl-1H-pyrrol-3-yl]-propionic acid] | 12.3 µM | 1.34 µM
7 | Cc1cccc2c1/C(=C/c1[nH]cc(CCC(=O)O)c1C)C(=O)N2 [Example 8, 3-[4-Methyl-5-(4-methyl-2-oxo-1,2-dihydroindol-3-ylidenemethyl)-1H-pyrrol-3-yl]-propionic acid] | 4.52 µM | 0.74 µM
8 | Cc1ccc2c(c1)/C(=C/c1[nH]cc(CCC(=O)O)c1C)C(=O)N2 [Example 9, 3-[4-Methyl-5-(5-methyl-2-oxo-1,2-dihydroindol-3-ylidenemethyl)-1H-pyrrol-3-yl]-propionic acid] | 13.4 µM | 0.33 µM
9 | COc1cc2c(cc1OC)/C(=C/c1[nH]cc(CCC(=O)O)c1C)C(=O)N2 [Example 10, 3-[5-(5,6-Dimethoxy-2-oxo-1,2-dihydroindol-3-ylidenemethyl)-4-methyl-1H-pyrrol-3-yl]-propionic acid] | > 50 µM | 10.6 µM
10 | Cc1c(CCC(=O)O)c[nH]c1/C=C1\C(=O)Nc2cc(Cl)ccc21 [Example 11, 3-[5-(6-Chloro-2-oxo-1,2-dihydroindol-3-ylidenemethyl)-4-methyl-1H-pyrrol-3-yl]-propionic acid] | 9.6 µM | 1.4 µM
11 | COC(=O)c1ccc2c(c1)/C(=C/c1[nH]cc(CCC(=O)O)c1C)C(=O)N2 [Example 12, 3-[4-(2-Carboxyethyl)-3-methyl-1H-pyrrol-2-ylmethylene]-2-oxo-2,3-dihydro-1H-indole-5-carboxylic acid methyl ester] | 24.6 µM | 11 µM
12 | CCc1ccc2c(c1)/C(=C/c1[nH]cc(CCC(=O)O)c1C)C(=O)N2 [Example 17, 3-[5-(5-Ethyl-2-oxo-1,2-dihydro-indol-3-ylidenemethyl)-4-methyl-1H-pyrrol-3-yl]-propionic acid] | 20 µM | 1.2 µM
13 | COc1ccc2c(c1)/C(=C/c1[nH]cc(CCC(=O)O)c1C)C(=O)N2 [Example 18, 3-[5-(5-Methoxy-2-oxo-1,2-dihydroindol-3-ylidenemethyl)-4-methyl-1H-pyrrol-3-yl]-propionic acid] | 18.4 µM | 2.4 µM
14 | Cc1[nH]c(/C=C2\C(=O)Nc3ccc(Br)cc32)c(C)c1CCC(=O)O [Example 19, 3-[5-(5-Bromo-2-oxo-1,2-dihydroindol-3-ylidenemethyl)-2,4-dimethyl-1H-pyrrol-3-yl]-propionic acid] | 3.6 µM | 0.07 µM
15 | Cc1[nH]c(/C=C2\C(=O)Nc3ccc(I)cc32)c(C)c1CCC(=O)O [Example 20, 3-[5-(5-Iodo-2-oxo-1,2-dihydroindol-3-ylidenemethyl)-2,4-dimethyl-1H-pyrrol-3-yl]-propionic acid] | 5 µM | 0.29 µM
16 | Cc1cccc2c1/C(=C/c1[nH]c(C)c(CCC(=O)O)c1C)C(=O)N2 [Example 21, 3-[2,4-Dimethyl-5-(4-methyl-2-oxo-1,2-dihydroindol-3-ylidene-methyl)-1H-pyrrol-3-yl]-propionic acid] | 5.6 µM | 4 µM
17 | Cc1ccc2c(c1)/C(=C/c1[nH]c(C)c(CCC(=O)O)c1C)C(=O)N2 [Example 22, 3-[2,4-Dimethyl-5-(5-methyl-2-oxo-1,2-dihydroindol-3-ylidenemethyl)-1H-pyrrol-3-yl]-propionic acid] | 15.8 µM | 0.13 µM
18 | Cc1[nH]c(/C=C2\C(=O)Nc3cc(O)ccc32)c(C)c1CCC(=O)O [Example 23, 3-[5-(6-Hydroxy-2-oxo-1,2-dihydroindol-3-ylidenemethyl)-2,4-dimethyl-1H-pyrrol-3-yl]-propionic acid] | 1.1 µM | 3 µM
19 | COc1ccc2c(c1)NC(=O)/C2=C\c1[nH]c(C)c(CCC(=O)O)c1C [Example 24, 3-[5-(6-Methoxy-2-oxo-1,2-dihydroindol-3-ylidenemethyl)-2,4-dimethyl-1H-pyrrol-3-yl]-propionic acid] | 25.1 µM | 0.67 µM
20 | COc1cccc(-c2ccc3c(c2)NC(=O)/C3=C\c2[nH]c(C)c(CCC(=O)O)c2C)c1 [Example 27, 3-{5-[6-(3-Methoxy-phenyl)-2-oxo-1,2-dihydroindol-3-ylidenemethyl]-2,4-dimethyl-1H-pyrrol-3-yl}-propionic acid] | 1.5 µM | 0.99 µM
21 | Cc1c(CCC(=O)O)c[nH]c1/C=C1\C(=O)Nc2cc(Br)ccc21 [Example 28, 3-[5-(6-Bromo-2-oxo-1,2-dihydroindol-3-ylidenemethyl)-4-methyl-1H-pyrrol-3-yl]-propionic acid] | 1.9 µM | 0.15 µM
22 | COc1cccc(-c2ccc3c(c2)NC(=O)/C3=C\c2[nH]cc(CCC(=O)O)c2C)c1 [Example 29, 3-{5-[6-(3-Methoxy-phenyl)-2-oxo-1,2-dihydroindol-3-ylidenemethyl]-4-methyl-1N-pyrrol-3-yl}-propionic acid] | 0.13 µM | 0.18 µM
23 | CCOc1cccc(-c2ccc3c(c2)NC(=O)/C3=C\c2[nH]c(C)c(CCC(=O)O)c2C)c1 [Example 30, 3-(5-[6-(3-Ethoxy-phenyl)-2-oxo-1,2-dihydroindol-3-ylidenemethyl]-2,4-dimethyl-1H-pyrrol-3-yl)-propionic acid] | 0.64 µM | 0.25 µM
24 | CCOc1cccc(-c2ccc3c(c2)NC(=O)/C3=C\c2[nH]cc(CCC(=O)O)c2C)c1 [Example 31, 3-{5-[6-(3-Ethoxy-phenyl)-2-oxo-1,2-dihydroindol-3-ylidenemethyl]-4-methyl-1H-pyrrol-3-yl}-propionic acid] | 0.18 µM | 0.09 µM
25 | Cc1[nH]c(/C=C2\C(=O)Nc3cc(-c4ccccc4)ccc32)c(C)c1CCC(=O)O [Example 32, 3-[2,4-Dimethyl-5-(2-oxo-6-phenyl-1,2-dihydroindol-3-ylidenemethyl)-1H-pyrrol-3-yl]-propionic acid] | 10 µM | 10 µM
